Experimental findings from patent publication US20260042762A1 (Kymera Therapeutics, Inc., priority 2018, published 2026) are described below.

For this assay, the target named is T1, MerTK (Homo sapiens, UniProt Q12866).
T1 construct: endogenous in cells; host or cells: Jurkat cells
T1 sequence (Q12866 21-999): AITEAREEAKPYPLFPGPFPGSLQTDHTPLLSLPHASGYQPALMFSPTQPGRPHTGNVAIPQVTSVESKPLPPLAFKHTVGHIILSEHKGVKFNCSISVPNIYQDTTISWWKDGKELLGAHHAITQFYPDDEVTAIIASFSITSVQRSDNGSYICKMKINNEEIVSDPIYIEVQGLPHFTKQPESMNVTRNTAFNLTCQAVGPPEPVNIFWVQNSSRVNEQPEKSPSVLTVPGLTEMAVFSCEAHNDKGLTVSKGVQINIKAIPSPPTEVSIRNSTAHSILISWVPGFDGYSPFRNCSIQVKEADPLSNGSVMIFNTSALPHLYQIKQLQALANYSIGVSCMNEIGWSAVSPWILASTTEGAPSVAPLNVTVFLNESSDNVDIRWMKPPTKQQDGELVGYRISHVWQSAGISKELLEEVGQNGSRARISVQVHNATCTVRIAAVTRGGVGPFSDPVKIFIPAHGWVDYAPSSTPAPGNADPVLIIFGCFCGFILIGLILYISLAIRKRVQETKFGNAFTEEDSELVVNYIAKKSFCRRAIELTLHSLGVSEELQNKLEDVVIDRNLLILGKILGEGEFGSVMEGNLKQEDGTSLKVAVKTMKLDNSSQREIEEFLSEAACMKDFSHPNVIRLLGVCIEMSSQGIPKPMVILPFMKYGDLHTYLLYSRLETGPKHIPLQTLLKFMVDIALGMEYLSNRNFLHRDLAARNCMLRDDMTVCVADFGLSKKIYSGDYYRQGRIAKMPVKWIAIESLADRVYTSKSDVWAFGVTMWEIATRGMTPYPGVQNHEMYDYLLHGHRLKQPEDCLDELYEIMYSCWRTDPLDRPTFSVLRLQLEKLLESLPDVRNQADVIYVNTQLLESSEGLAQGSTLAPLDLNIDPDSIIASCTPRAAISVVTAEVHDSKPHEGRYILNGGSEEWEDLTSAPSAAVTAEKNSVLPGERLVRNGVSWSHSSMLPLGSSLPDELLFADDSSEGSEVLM
Briefly: MerTk degradation in Jurkat cells (Western blot). The note with it: 0.001-1 μM, 4 hour-incubation at 37° C., read-out: Jurkat Max % MerTK Degradation. The format is cell-based. In short, it runs like this: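 MerTK degradation was read by near-infrared Western blot, normalized to actin, in BCA-quantified lysates of Jurkat cells exposed to 0.001-1 μM compound for 4 h at 37 °C.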
A general note: In western blotting, separated proteins are transferred to a membrane and probed.

Molecules are shown by their SMILES. Where two headings read alike, the source gives them in different places.

`CCCCNc1ncc2c(-c3ccc(S(=O)(=O)N4CCN(CCOCCOCCOCCOCCNc5cccc6c5C(=O)N(C5CCC(=O)NC5=O)C6=O)CC4)cc3)nn([C@H]3CC[C@H](O)CC3)c2n1` (stereo partly drawn) [I-34, 4-((14-(4-((4-(6-(butylamino)-1-(trans-4-hydroxycyclohexyl)-1H-pyrazolo[3,4-d]pyrimidin-3-yl)phenyl)sulfonyl)piperazin-1-yl)-3,6,9,12-tetraoxatetradecyl)amino)-2-(2,6-dioxopiperidin-3-yl)isoindoline-1,3-dione]: where the note is “Jurkat, 4 h”, the Dmax was > 50%.
In the case of `Cn1c(=O)n([C@H]2CCC(=O)NC2=O)c2ccc(CCCN3CC(CCN4CCN(Cc5ccc(-c6cn([C@H]7CC[C@H](O)CC7)c7nc(NCCC(F)(F)F)ncc67)cc5)CC4)C3)cc21` [I-112, 3-(3-methyl-2-oxo-5-[3-[3-(2-[4-[(4-[7-[trans-4-hydroxycyclohexy1]-2-[(3,3,3-trifluoropropyl)amino]-7H-pyrrolo[2,3-d]pyrimidin-5-yl]phenyl)methyl]piperazin-1-yl]ethyl)azetidin-1-yl]propyl]-2,3-dihydro-1H-1,3-benzodiazol-1-y1)piperidine-2,6-dione], under “Jurkat, 4 h”, the Dmax was < 20%.
Consider `Cn1c(=O)n(C2CCC(=O)NC2=O)c2ccc(C#CCOCCN3CCCC(N4CCN(Cc5ccc(-c6cn([C@H]7CC[C@H](O)CC7)c7nc(NCCC(F)(F)F)ncc67)cc5)CC4)C3)cc21` (stereo partly drawn) [I-87, 3-(3-methyl-2-oxo-5-[3-[2-(3-[4-[(4-[7-[trans-4-hydroxycyclohexyl]-2-[(3,3,3-trifluoropropyl)amino]-7H-pyrrolo[2,3-d]pyrimidin-5-yl]phenyl)methyl]piperazin-1-yl]piperidin-1-yl)ethoxy]prop-1-yn-1-y1]-2,3-dihydro-1H-1,3-benzodiazol-1-y1)piperidine-2,6-dione; formic acid], for which, where the note is “Jurkat, 4 h”, the Dmax is > 50%.
Consider `CCCCNc1ncc2c(-c3ccc(CN4CCN(CCOCCOCCCc5ccc6c(c5)n(C)c(=O)n6[C@H]5CCC(=O)NC5=O)CC4)cc3)nn([C@H]3CC[C@H](O)CC3)c2n1` [I-50, 3-[5-[3-(2-[2-[4-([4-[6-(butylamino)-1-[trans-4-hydroxycyclohexyl]-1H-pyrazolo[3,4-d]pyrimidin-3-yl]phenyl]methyl)piperazin-1-yl]ethoxy]ethoxy)propyl]-3-methyl-2-oxo-2,3-dihydro-1H-1,3-benzodiazol-1-y1]piperidine-2,6-dione; formic acid], for which the Dmax (Jurkat, 4 h) is > 50%.
For `C[C@H](CC(F)(F)F)Nc1ncc2c(-c3ccc(CN4CCN(CCCOC5CCN(Cc6ccc7c(c6)n(C)c(=O)n7C6CCC(=O)NC6=O)CC5)CC4)cc3)cn([C@H]3CC[C@H](O)CC3)c2n1` (stereo partly drawn) [I-196, 3-(3-methyl-2-oxo-5-[[4-(3-[4-[(4-[7-[trans-4-hydroxycyclohexyl]-2-[[(2R)-4,4,4-trifluorobutan-2-yl]amino]pyrrolo[2,3-d]pyrimidin-5-y1]phenyl)methyl]piperazin-1-yl]propoxy)piperidin-1-yl]methyl]-1,3-benzodiazol-1-yl)piperidine-2,6-dione], the Dmax (Jurkat, 4 h) is > 50%.
The same measure, in the same setting: to `CC(c1ccc(-c2cn([C@H]3CC[C@H](O)CC3)c3nc(NCCC(F)(F)F)ncc23)cc1)N1CCN(CCCOCCCc2ccc3c(c2)n(C)c(=O)n3C2CCC(=O)NC2=O)CC1` (stereo partly drawn) [I-80, 3-[3-methyl-2-oxo-5-[3-(3-[4-[1-(4-[7-[trans-4-hydroxycyclohexyl]-2-[(3,3,3-trifluoropropyl)amino]-7H-pyrrolo[2,3-d]pyrimidin-5-yl]phenyl)ethyl]piperazin-1-yl]propoxy)propyl]-2,3-dihydro-1H-1,3-benzodiazol-1-yl]piperidine-2,6-dione] belongs > 50%.
For `COc1ccc(Nc2nc(Nc3cc(OCCOCCOCCOCCOCC(=O)N[C@H](C(=O)N4C[C@H](O)C[C@H]4C(=O)NCc4ccc(-c5scnc5C)cc4)C(C)(C)C)c(OC)cc3C)ncc2Cl)c(NS(C)(=O)=O)c1` [I-228], the Dmax (Jurkat, 4 h) lay in the range of 20 to 50%.
As for `Cn1c(=O)n([C@H]2CCC(=O)NC2=O)c2ccc(CCCCN3CC(N4CCN(Cc5ccc(-c6cn([C@H]7CC[C@H](O)CC7)c7nc(NCCC(F)(F)F)ncc67)cc5)CC4)C3)cc21` [I-119, 3-[3-methyl-2-oxo-5-[4-(3-[4-[(4-[7-[trans-4-hydroxycyclohexyl]-2-[(3,3,3-trifluoropropyl)amino]-7H-pyrrolo[2,3-d]pyrimidin-5-yl]phenyl)methyl]piperazin-1-yl]azetidin-1-yl)butyl]-2,3-dihydro-1H-1,3-benzodiazol-1-yl]piperidine-2,6-dione; bis(formic acid)], where the note is “Jurkat, 4 h”, the Dmax was > 50%.
With `CCCCNc1ncc2c(-c3ccc(CN4CCN(CCCc5ccc6c(c5)n(C)c(=O)n6[C@H]5CCC(=O)NC5=O)CC4)cc3)cn([C@H]3CC[C@H](O)CC3)c2n1` [I-44, 3-(5-[3-[4-([4-[2-(Butylamino)-7-[trans-4-hydroxycyclohexyl]-7H-pyrrolo[2,3-d]pyrimidin-5-yl]phenyl]methyl)piperazin-1-yl]propyl]-3-methyl-2-oxo-2,3-dihydro-1H-1,3-benzodiazol-1-y1)piperidine-2,6-dione; formic acid], the Dmax (Jurkat, 4 h) was < 20%.
On the same count and under the same terms, to `CCC1CN(c2ccc(-c3ccnc(Nc4cc(OC)c(OC)c(OCCOCCOCCOCCOCC(=O)N[C@H](C(=O)N5C[C@H](O)C[C@H]5C(=O)NCc5ccc(-c6scnc6C)cc5)C(C)(C)C)c4)n3)cn2)CCN1` (stereo partly drawn) [I-233] belongs > 50%.
With `CCCCNc1ncc2c(-c3ccc(CN4CCN(CCCC(=O)NCCCOCCCOCCCc5cccc6c5n(C)c(=O)n6C5CCC(=O)NC5=O)CC4)cc3)cn([C@H]3CC[C@H](O)CC3)c2n1` (stereo partly drawn) [I-8, Trans-4-[4-([4-[2-(butylamino)-7-[4-hydroxycyclohexyl]-7H-pyrrolo[2,3-d]pyrimidin-5-yl]phenyl]methyl)piperazin-1-yl]-N-[3-(3-[3-[1-(2,6-dioxopiperidin-3-yl)-3-methyl-2-oxo-2,3-dihydro-1H-1,3-benzodiazol-4-yl]propoxy]propoxy)propyl]butanamide formic acid], the Dmax is > 50%.
Turning to `CCC[C@H](C)Nc1ncc2c(-c3ccc(CN4CCN(C5CC(OCCc6ccc7c(c6)n(C)c(=O)n7C6CCC(=O)NC6=O)C5)CC4)cc3)cn([C@H]3CC[C@H](O)CC3)c2n1` (stereo partly drawn) [I-175, 3-[3-methyl-2-oxo-5-[2-(3-[4-[(4-[2-[(2S)-pentan-2-ylamino]-7-[trans-4-hydroxycyclohexyl]pyrrolo[2,3-d]pyrimidin-5-yl]phenyl)methyl]piperazin-1-yl]cyclobutoxy)ethyl]-1,3-benzodiazol-1-yl]piperidine-2,6-dione], the Dmax (Jurkat, 4 h) was > 50%.
For the molecule `Cn1c(=O)n([C@H]2CCC(=O)NC2=O)c2ccc(CCCC3CN(C4CCN(Cc5ccc(-c6cn([C@H]7CC[C@H](O)CC7)c7nc(NCCC(F)(F)F)ncc67)cc5)CC4)C3)cc21` [I-156, 3-[3-methyl-2-oxo-5-[3-(1-[1-[(4-[7-[trans-4-hydroxycyclohexy1]-2-[(3,3,3-trifluoropropyl)amino]pyrrolo[2,3-d]pyrimidin-5-y1]phenyl)methyl]piperidin-4-yl]azetidin-3-yl)propyl]-1,3-benzodiazol-1-yl]piperidine-2,6-dione; formic acid], for the setting “Jurkat, 4 h”, the Dmax was > 50%.
`Cn1c(=O)n(C2CCC(=O)NC2=O)c2ccc(CCCCN3CCCC(N4CCN(Cc5ccc(-c6cn([C@H]7CC[C@H](O)CC7)c7nc(NCCC(F)(F)F)ncc67)cc5)CC4)C3)cc21` (stereo partly drawn) [I-121, 3-[3-methyl-2-oxo-5-[4-(3-[4-[(4-[7-[trans-4-hydroxycyclohexyl]-2-[(3,3,3-trifluoropropyl)amino]-7H-pyrrolo[2,3-d]pyrimidin-5-yl]phenyl)methyl]piperazin-1-yl]piperidin-1-yl)butyl]-2,3-dihydro-1H-1,3-benzodiazol-1-yl]piperidine-2,6-dione]: the Dmax (Jurkat, 4 h) was > 50%.
Consider `Cn1c(=O)n([C@H]2CCC(=O)NC2=O)c2ccc(CCO[C@H]3C[C@H](N4CCN(Cc5ccc(-c6cn([C@H]7CC[C@H](O)CC7)c7nc(NCCC(F)(F)F)ncc67)cc5)CC4)C3)cc21` [I-170, 3-(3-methyl-2-oxo-5-[2-[trans-3-[4-[(4-[7-[trans-4-hydroxycyclohexy1]-2-[(3,3,3-trifluoropropyl)amino]pyrrolo[2,3-d]pyrimidin-5-yl]phenyl)methyl]piperazin-1-yl]cyclobutoxy]ethyl]-1,3-benzodiazol-1-y1)piperidine-2,6-dione; formic acid], for which the Dmax (Jurkat, 4 h) was > 50%.
